Source: ChEMBL document CHEMBL2086234, “Phenolic constituents from the rhizomes of Acorus gramineus and their biological evaluation on antitumor and anti-inflammatory activities” (Bioorg Med Chem Lett, 2012)
Values belong to the molecule of their own block, whether it stands above or below them. Activity calls are given as the source filed them. The rule behind the calls is not given here.

Assays:
[1] = Cytotoxicity against mouse BV2 cells assessed as cell viability at 20 uM by MTT assay; format: cell-based, BV-2; conditions: read-out: Activity
A549 = test: Cytotoxicity against human A549 cells by SRB assay; format: functional, cell-based
SK-OV-3 = test: Cytotoxicity against human SKOV3 cells by SRB assay; format: functional, cell-based
SK-MEL-2 = test: Cytotoxicity against human SK-MEL-2 cells by SRB assay; format: functional, cell-based
HCT-15 = test: Cytotoxicity against human HCT15 cells by SRB assay; format: functional, cell-based
BV-2 [2] = test: Antiinflammatory activity in mouse BV2 cells assessed as inhibition of LPS-induced NO production treated 30 mins before LPS stimulation measured after 24 hrs by Griess reaction; format: functional, cell-based
[3] = molecular target: T1, Nitric oxide synthase, inducible (Mus musculus) (UniProt P29477); test: Inhibition of iNOS activity in mouse BV2 cells assessed as inhibition of LPS-induced NO production at 20 uM treated 12 hrs before LPS challenge measured after 12 hrs by Griess reaction; format: cell-based; conditions: BV-2
T1 sequence (whole entry): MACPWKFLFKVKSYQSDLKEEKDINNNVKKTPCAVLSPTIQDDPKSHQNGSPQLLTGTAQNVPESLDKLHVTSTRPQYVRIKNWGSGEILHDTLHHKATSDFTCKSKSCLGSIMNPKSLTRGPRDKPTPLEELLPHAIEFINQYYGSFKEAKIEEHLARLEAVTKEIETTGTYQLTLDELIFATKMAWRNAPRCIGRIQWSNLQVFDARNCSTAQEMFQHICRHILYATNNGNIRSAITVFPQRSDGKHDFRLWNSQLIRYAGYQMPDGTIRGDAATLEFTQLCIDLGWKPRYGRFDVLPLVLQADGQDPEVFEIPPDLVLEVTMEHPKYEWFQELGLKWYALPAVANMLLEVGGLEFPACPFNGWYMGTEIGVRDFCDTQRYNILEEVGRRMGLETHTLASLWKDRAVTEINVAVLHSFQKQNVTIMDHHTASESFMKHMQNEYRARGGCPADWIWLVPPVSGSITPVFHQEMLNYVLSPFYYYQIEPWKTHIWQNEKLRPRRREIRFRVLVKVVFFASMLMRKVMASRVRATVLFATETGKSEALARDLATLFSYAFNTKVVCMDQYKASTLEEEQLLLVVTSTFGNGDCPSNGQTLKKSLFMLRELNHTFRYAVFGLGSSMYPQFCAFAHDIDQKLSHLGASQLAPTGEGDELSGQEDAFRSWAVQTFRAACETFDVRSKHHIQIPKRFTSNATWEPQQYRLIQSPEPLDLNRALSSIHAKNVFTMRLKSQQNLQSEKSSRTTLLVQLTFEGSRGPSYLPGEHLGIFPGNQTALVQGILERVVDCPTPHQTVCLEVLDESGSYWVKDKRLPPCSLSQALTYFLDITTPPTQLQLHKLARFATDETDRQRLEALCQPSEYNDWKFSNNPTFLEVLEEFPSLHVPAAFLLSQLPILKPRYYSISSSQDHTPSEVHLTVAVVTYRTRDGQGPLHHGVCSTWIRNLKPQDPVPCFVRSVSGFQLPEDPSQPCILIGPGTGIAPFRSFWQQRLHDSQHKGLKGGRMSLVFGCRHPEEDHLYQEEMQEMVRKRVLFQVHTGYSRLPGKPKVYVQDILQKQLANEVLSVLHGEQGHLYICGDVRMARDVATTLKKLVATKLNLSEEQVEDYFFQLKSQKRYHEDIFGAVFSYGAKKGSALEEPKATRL

BV-2 [4] = test: Antiinflammatory activity in mouse BV2 cells assessed as inhibition of LPS-induced iNOS protein expression at 10 to 20 uM treated 30 mins before LPS stimulation measured after 6 hrs by Western blot analysis; format: functional, cell-based
BV-2 [5] = test: Antiinflammatory activity in mouse BV2 cells assessed as inhibition of sodium nitroprusside-induced nitrite accumulation at 10 to 20 uM after 180 mins by Griess reaction; format: functional, cell-based

IC50 (BV-2 [2]): 17.9 µM | inhibition [3]: Active
SMILES: COc1cc(CCCO)ccc1O[C@H](C)[C@H](O)c1cc(OC)c(OC)c(OC)c1
viability at 20 µM [1]: 88.8% | IC50 (A549): 4.17 µM | IC50 (SK-OV-3): 26.2 µM | IC50 (SK-MEL-2): 14.2 µM | IC50 (HCT-15): 24.3 µM

IC50 (BV-2 [2]): 142 µM
SMILES: COc1cc(CCCO)cc(OC)c1OC
viability at 20 µM [1]: 96.3% | IC50 (A549): > 30 µM | IC50 (SK-OV-3): > 30 µM | IC50 (SK-MEL-2): > 30 µM | IC50 (HCT-15): > 30 µM

IC50 (BV-2 [2]): > 500 µM
SMILES: COc1ccc(CCCO)cc1OC
viability at 20 µM [1]: 103% | IC50 (A549): 23.1 µM | IC50 (SK-OV-3): 11.8 µM | IC50 (SK-MEL-2): 21.9 µM | IC50 (HCT-15): 26.6 µM

IC50 (BV-2 [2]): 37.2 µM
SMILES: COc1cc([C@H](O)[C@@H](CO)Oc2c(OC)cc(CCCO)cc2OC)ccc1O (relative stereo)
viability at 20 µM [1]: 106% | IC50 (A549): > 30 µM | IC50 (SK-OV-3): > 30 µM | IC50 (SK-MEL-2): 29.1 µM | IC50 (HCT-15): > 30 µM

IC50 (BV-2 [2]): 59.9 µM
SMILES: COc1cc(OC)c([C@H]2[C@@H](C)[C@@H](c3cc(OC)c(OC)cc3OC)O[C@@H]2C)cc1OC (relative stereo)
viability at 20 µM [1]: 101% | IC50 (A549): > 30 µM | IC50 (SK-OV-3): 26.4 µM | IC50 (SK-MEL-2): 11.3 µM | IC50 (HCT-15): > 30 µM

IC50 (BV-2 [2]): 18.7 µM
SMILES: COc1cc(OC)c([C@@H]2[C@H](C)[C@@H](C)[C@H]2c2cc(OC)c(OC)cc2OC)cc1OC (relative stereo) [MAGNOSALIN]
inhibition (BV-2 [5]): Active | viability at 20 µM [1]: 93.1% | IC50 (A549): 19.6 µM | IC50 (SK-OV-3): 27.4 µM | IC50 (SK-MEL-2): 8.7 µM | IC50 (HCT-15): 23.1 µM | inhibition (BV-2 [4]): Active

IC50 (BV-2 [2]): 8.17 µM
SMILES: COc1cc(CCCO)ccc1O[C@H](C)[C@@H](O)c1cc(OC)c(OC)c(OC)c1 [SURINAMENSINOL B]
inhibition (BV-2 [5]): Active | viability at 20 µM [1]: 76.2% | IC50 (A549): 5.41 µM | IC50 (SK-OV-3): 21.4 µM | IC50 (SK-MEL-2): 10.4 µM | IC50 (HCT-15): 18.8 µM

Further lines, the molecule ahead of its results:

SMILES: O=C(CCO)c1ccc(O)cc1
viability at 20 µM [1]: 107% | IC50 (A549): > 30 µM | IC50 (SK-OV-3): > 30 µM | IC50 (SK-MEL-2): > 30 µM | IC50 (HCT-15): > 30 µM | IC50 (BV-2 [2]): 58.1 µM

SMILES: COc1cc(/C=C\CO)ccc1O
viability at 20 µM [1]: 98.4% | IC50 (A549): 11 µM | IC50 (SK-OV-3): 13 µM | IC50 (SK-MEL-2): 14.7 µM | IC50 (HCT-15): 20.4 µM | IC50 (BV-2 [2]): 14.1 µM | inhibition [3]: Active | inhibition (BV-2 [4]): Active

SMILES: COc1cc(/C=C\C(=O)NCCc2ccc(O)cc2)ccc1O
viability at 20 µM [1]: 100% | IC50 (A549): > 30 µM | IC50 (SK-OV-3): > 30 µM | IC50 (SK-MEL-2): > 30 µM | IC50 (HCT-15): > 30 µM | IC50 (BV-2 [2]): 32.1 µM

SMILES: COc1cc(/C=C/C(=O)NC[C@@H](O)c2ccc(O)cc2)ccc1O
viability at 20 µM [1]: 98.3% | IC50 (A549): > 30 µM | IC50 (SK-OV-3): > 30 µM | IC50 (SK-MEL-2): > 30 µM | IC50 (HCT-15): > 30 µM | IC50 (BV-2 [2]): 54.8 µM

SMILES: COc1cc(OC)c(OC)cc1/C=C\CO [ACORAMOL]
viability at 20 µM [1]: 105% | IC50 (A549): > 30 µM | IC50 (SK-OV-3): > 30 µM | IC50 (SK-MEL-2): 25.2 µM | IC50 (HCT-15): > 30 µM | IC50 (BV-2 [2]): 126 µM

SMILES: COc1cccc2c1C(=O)c1c(O)c3c(c(O)c1C2=O)C[C@@](O)(C(=O)CO)C[C@@H]3O[C@H]1C[C@H](N)[C@H](O)[C@H](C)O1 [DOXORUBICIN]
IC50 (SK-OV-3): 0.004 µM | IC50 (SK-MEL-2): 0.004 µM | IC50 (HCT-15): 0.082 µM

SMILES: COc1cc(/C=C/C(=O)NCCc2ccc(O)cc2)ccc1O [N-TRANS-FERULOYL TYRAMINE]
inhibition (BV-2 [5]): Active | viability at 20 µM [1]: 97.8% | IC50 (A549): > 30 µM | IC50 (SK-OV-3): > 30 µM | IC50 (SK-MEL-2): > 30 µM | IC50 (HCT-15): > 30 µM | IC50 (BV-2 [2]): 17.4 µM | inhibition [3]: Active | inhibition (BV-2 [4]): Active

SMILES: CNC(=N)NCCC[C@H](N)C(=O)O [TILARGININE]
viability at 20 µM [1]: 98.8% | IC50 (BV-2 [2]): 18.2 µM
